Results taken from patent US20120252855A1, “Methods For Treating Degenerative Diseases/Injuries” (priority 2003, published 2012).

What was measured:
[1] = tested on: Human marrow progenitor CD34+ cells; assay: CD34+ Progenitor Cell Proliferation Assay Experiment 2; type: cell-based
Experimental: Human marrow progenitor CD34+ cells were washed in SFEM, counted and brought to 2×10^5/mL in 24-well plates and incubated for 7 days in the presence of compound or rhTpo. Dilutions of 3′-{N′-[1-(3,4-Dimethylphenyl)-3-methyl-5-oxo-1,5-dihydropyrazol-4-ylidene]hydrazino}-2′-hydroxybiphenyl-3-carboxylic acid bis-(monoethanolamine) were made in distilled water to equal 0, 0.3, 1 and 3 uM final concentration. Dilutions of 3-{N′-[1-(3,4-dimethylphenyl)-3-methyl-5-oxo-1,5-dihydropyrazol-4-ylidene]hydrazino}-2-hydroxy-3′-tetrazol-5-ylbiphenyl disodium salt were made in DMSO to equal 0, 0.3, 1 and 3 uM final concentration in 0.1% DMSO. Recombinant human TPO at a final concentration of 100 ng/mL was used as a positive control. At day 7, cells were counted and flow cytometry was performed using FITC-CD34.

[2] = tested on: early CD34+ progenitor cells from human bone marrow; assay: CD34+ Progenitor Cell Proliferation Assay; type: cell-based
Experimental: Compounds are tested for their ability in stimulating the survival and proliferation of early CD34+ progenitor cells from human bone marrow. In this assay, purified human CD34+ progenitor cells are incubated in liquid culture with test compounds for up to 7 days and the number of cells expressing the early stem cell marker CD34 are then measured by flow cytometry and compared to untreated cells (see Liu et al. Bone Marrow Transplantation. 24:247-52, 1999).

## CC1=NN(c2ccc(C)c(C)c2)C(=O)C1=NNc1cccc(-c2cccc(-c3nnn[nH]3)c2)c1O.[Na].[Na] [3-{N′-[1-(3,4-dimethylphenyl)-3-methyl-5-oxo-1,5-dihydropyrazol-4-ylidene]hydrazino}-2-hydroxy-3′-tetrazol-5-ylbiphenyl disodium salt]
[1]; compound at 3 uM in 0.1% DMSO, 7 days, FITC-CD34 flow cytometry
  increase in the number of CD34+ cells: 3.6 fold

## rhTpo: Recombinant human TPO, used as a positive control at 100 ng/mL
[2]; rhTpo 100 ng/ml, same experiment as E1
  increase in the number of CD34+ cells: 2 fold
[1]; rhTpo 100 ng/ml positive control, experiment with the bis-(monoethanolamine) salt, day 7
  increase in the number of CD34+ cells: 15 fold
[1]; rhTpo 100 ng/ml positive control, experiment with the tetrazole disodium salt, day 7
  increase in the number of CD34+ cells: 3.4 fold

## CC1=NN(c2ccc(C(F)(F)F)cc2)C(=O)C1=NNc1cccc(-c2cccc(C(=O)O)c2)c1O [3′-{N′-[3-methyl-5-oxo-1-(4-trifluoromethylphenyl)-1,5-dihydropyrazol-4-ylidene]hydrazino}-2′-hydroxybiphenyl-3-carboxylic acid]
[2]; compound at 3 uM, days 2, 5 and 7, flow cytometry
  increase in the number of CD34+ cells in liquid culture over vehicle controls: up to 2 fold

## CC1=NN(c2ccc(C)c(C)c2)C(=O)C1=NNc1cccc(-c2cccc(C(=O)O)c2)c1O.NCCO.NCCO [3′-{N′-[1-(3,4-Dimethylphenyl)-3-methyl-5-oxo-1,5-dihydropyrazol-4-ylidene]hydrazino}-2′-hydroxybiphenyl-3-carboxylic acid bis-(monoethanolamine)]
[1]; compound at 3 uM, dilutions in distilled water, 7 days, FITC-CD34 flow cytometry
  increase in the number of CD34+ cells: 3 fold
